1 compound from patent publication US6548540B2, “Method of treating cancer using dithiocarbamate derivatives” (Charlotte-Mecklenburg Hospital Authority, priority 1998, dated 2003) can be followed below.

Where two headings read alike, the source gives them in different places.

For one test, the system named is p53. The experiment in a line: Immunoblot for p53. The settings on record: cell lines studied; data not shown. The format is cell-based, human. On the procedure:
Cells were lysed and proteins were isolated and quantitated by immunoassay as previously detailed using 2 μg/ml of primary rabbit polyclonal antibodies against human bcl-2, p53, p21^WAF1/CiP1, cyclin A and cyclin B1, and peroxidase-labeled donkey polyclonal anti-rabbit IgG. Cells were placed on ice, washed twice with cold DPBS, scraped into 0.5 ml boiling buffer (10% [vol/vol] glycerol and 2% [wt/vol] sodium dodecyl sulfate [SDS] in 83 mM Tris, pH 6.8) and sheared by four passages through a pipette. Aliquots were removed for protein determination, using the BCA protein assay (Pierce). After 10% β-mercaptoethanol and 0.05% bromophenol blue were added, lysates were boiled for 5 min and stored at −80° C. until immunoblotting was performed. Proteins in defrosted samples were separated by SDS-polyacrylamide gel electrophoresis on 12% polyacrylamide gels (15 μg protein/lane) and electrotransferred to 0.45 μm Hybond ECL nitrocellulose membranes (Amersham Life Sciences) using the wet transblot method in transfer buffer (0.025 M Tris, 0.192 M glycine, 2.6 mM SDS, and 20%[vol/vol] methanol; pH 8.8) at 100 volts for 1 hour. […] Immunoblots were rinsed again as above and detected via an enhanced chemiluminescence method (ECL Western blotting detection system, Amersham Life Science, Buckinghamshire, England). […]

Another test relates to Melanoma M1585. The experiment in a line: MTT proliferation assay, M1585 melanoma. The format is cell-based. The note with it: Homo sapiens; for inhibition at 0.625 µM: disulfiram 0.625 μM; for inhibition at 0.625 µM / inhibition at 1.25 µM / inhibition at 2.5 µM / inhibition at 5 µM: read-out: Mean Percent Inhibition of Growth; for inhibition at 1.25 µM: disulfiram 1.25 μM; for inhibition at 2.5 µM: disulfiram 2.5 μM; for inhibition at 5 µM: disulfiram 5.0 μM. On the procedure:
Human malignant cell lines were obtained from American Type Tissue Culture Collection (Rockville, Md.). Melanoma cells lines CRL 1585 and 1619 were cultured in RPMI 1640 (GIBCO-BRL, Life Technologies, Grand Island, N.Y.) with 10% FBS and passed with nonenzymatic Cell Dissociation Solution® (Sigma). The prostate adenocarcinoma cell line CRL 1435 (PC-3) was also cultured in RPMI 1640 with 10% FBS but passed with 0.05% trypsin and 0.53 mM EDTA. The squamous lung carcinoma NCI-H520 and the adenosquamous lung carcinoma NCI-H596 cell lines were grown in RPMI 1640 supplemented with 10% FBS, 10 mM HEPES and 1.0 mM sodium pyruvate and passed with trypsin/EDTA. The small cell lung carcinoma NCI-H82 was cultured as a suspension in RPMI 1640 with 10% FBS. All of the above were grown in a 37° C. humidified environment containing 5% CO2/air. The breast carcinoma cell line MDA-MB-453 was grown in a 37° C. humidified environment with free gas exchange with atmospheric air using Leibovitz's L-15 medium with 2 mM L-glutamine and 10% FBS and was passed with trypsin/EDTA.
The effect of disulfiram (0.15 to 5.0 μM), diethyldithiocarbamate (DDC, 1.0 μM) or PDTC (0.625 to 5.0 μM) on proliferation of malignant cell lines was studied in cultures stimulated with 10% FBS. Cell numbers were quantitated 24-72 hours later. In some experiments disulfiram or PDTC were added immediately after cells were plated. In other experiments, cells were plated and allowed to grow for 24-72 hours before fresh media with disulfiram or PDTC was added, and cell numbers were assayed 24-72 hours later. Synergy was studied between disulfiram and N,N′-bis(2-chloroethyl-N-nitrosourea (carmustine or BCNU, 1.0 to 1,000 μM) or cisplatin (0.1 to 100 μg/ml) added to medium. The effect of metals on disulfiram was studied with 0.2 to 10 μM copper (provided as CuSO4), zinc (as ZnCl2), silver (as silver lactate) or gold (as HAuCl4.3H2O) ions added to growth medium. No pH changes occurred with addition of metal salts to culture medium. To provide a biologically relevant source of copper, in some experiments medium was supplemented with human ceruloplasmin at doses replicating low and high normal adult serum concentrations (250 and 500 μg/ml).
Proliferation of cultured cells was quantitated using a previously reported calorimetric method based upon metabolic reduction of the soluble yellow tetrazolium dye 3-[4,5-dimethylthiazol]-2yl-2,5-diphenyl tetrazolium bromide (MTT) to its insoluble purple formazan by the action of mitochondrial succinyl dehydrogenase (See, e.g., S. J. Hirst, et al., “Quantifying proliferation of cultured human and rabbit airway smooth muscle in response to serum and platelet derived growth factor,” Am. J. Respir. Cell Mol. Biol. 7:574-581 (1992); R. Dashtaki, et al. R., supra; S. S. Brar, et al., “Requirement for reactive oxygen species in serum-induced and platelet-derived growth factor-induced growth of airway smooth muscle,” J. Biol. Chem. 274:20017-20026 (1999)). This assay empirically distinguishes between dead and living cells. For proliferation studies, cells were seeded into 24-well uncoated plastic plates (Costar) at 50,000 cells per well and cultured with respective media and mitogens. After 24-96 hours, medium was removed, cells were washed twice with 1 ml of sterile Dulbecco's modified phosphate buffered saline without Ca^2+ or Mg^2+ (DPBS), the medium was replaced with 1 ml/well fresh medium containing 100 μg/ml MTT, and plates were incubated an additional hour. MTT-containing medium was removed, 0.5 ml dimethylsulfoxide (DMSO) was added to each well, and the absorbance of the solubilized purple formazan dye was measured at 540 nm. A total of 4-6 wells were studied at each treatment condition. Preliminary studies were performed with 50-200 μg/ml MTT incubated for 15 minutes to 3 hours to determine the optimum concentration and incubation time at which the rate of conversion was linear and proportional to the number of cells present. […]
(In general: Tetrazolium dyes change colour on reduction, which living cells bring about.)

[1] abbreviates: treatment after 24 hours of growth.
Setting [2] is: treatment initially, after 48 hours, 10% FBS.

As usually defined, the inhibition is the relative decrease from the control value, in per cent. Turning to `CCN(CC)C(=S)SSC(=S)N(CC)CC` [Disulfiram, tetraethylthiuram disulfide], the “expression of p53” value in the test with p53 was “no consistent effect”. Further, in the test with Melanoma M1585 (M1585 melanoma cells, read-out: 50% inhibitor concentration (IC50)), the IC50 was found to be 0.3 µM. In the test on Melanoma M1585 (setting [1]), the inhibition at 0.625 µM worked out at 74 ± 4%, the inhibition at 1.25 µM turned out to be 49 ± 7%, the inhibition at 2.5 µM was found to be 41 ± 2% and the inhibition at 5 µM stood at 37 ± 6%. In the test on Melanoma M1585 (setting [2]), the inhibition at 0.625 µM is 100%, the inhibition at 1.25 µM came to 100%, the inhibition at 2.5 µM turned out to be 100% and the inhibition at 5 µM was 100%.
